Assay [1] deals with PfNF54 schizonts. Nature of the assay: Stage-specific morphological evaluation, nuclei count per schizont. The following applies: TAE684 3xIC50, hesperadin IC99; n = 30. Format: cell-based, Plasmodium falciparum.
Experimental: Nuclei content was detected by consecutive staining with SYBR Green I (DNA fluorescence), detected in the FITC channel.
To determine the stage specificity during asexual intra-erythrocytic development, P. falciparum NF54 parasites were synchronised using 5% D-Sorbitol to obtain a >90% ring-stage population (6–10 h post-invasion, hpi). […] The rate of activity and stage-specificity was monitored morphologically using Giemsa-stained thin smears. Asexual intra-erythrocytic stage parasites were treated at ring, early/late trophozoite, and schizont stages, sampling every 12 h over a 48-hour period. Images were captured using a Nikon Eclipse 50i light microscope adapted with a Nikon camera (Nikon DS-Fi1) and NIS-Elements software. […] Parasite progression was monitored every 12 h over a 48-h period using flow cytometry, as described in^[11]. The IC50 speed assay was conducted as described in^[12]. Briefly, unsynchronised P. falciparum NF54 asexual proliferation was determined using a SYBR Green I proliferation-based assay and expressed as IC50 values as described earlier. Four incubation times were employed for each inhibitor: 96 (standard assay time), 72, 48 and 24 h. IC50 values were obtained from corrected dose-response curves using Graph-Pad Prism v10.5.
Assay [2] concerns P. berghei liver schizonts in HepG2-A16-CD81EGFP cells. The experiment in a line: P. berghei (PbLuc) liver stage assay. In kind it is cell-based. The following applies: Plasmodium berghei. From the text:
(B) Antiplasmodial activity of nine anticancer aurora kinase inhibitors (selected based on their PfNF54 ABS activity) against P. falciparum multidrug-resistant ABS parasites (PfDd2 and PfK1). (C) Kinobead competitive inhibition data.
Plasmodium berghei (Pb) sporozoites were obtained by dissecting the salivary glands of infected Anopheles stephensi mosquitoes. These were provided by The SporoCore, at the University of Georgia, GA, USA (SporoCore.uga.edu). The parasites utilised a GFP-Lucama1-eef1 reporter line^[5]. These engineered parasites, termed Pb-Luc, were used to infect HepG2-A16-CD81EGFP cells. HepG2-A16-CD81EGFP cells stably transformed to express a GFP-CD81 fusion protein^[6] were cultured at 37 °C in 5% CO2 in DMEM (Invitrogen, Carlsbad, USA) supplemented with 10% FBS (Corning, NY, USA), 1X Pen/Strep/Glu (Thermo Fisher Scientific, USA). Compounds were prepared as 10 mM solutions in DMSO, and 10 nL of each (resulting in a final DMSO concentration of 0.1% per well) was transferred into assay plates using an ECHO 650 (Beckman). Concentrations ranged from 10 µM to 0.5 nM. Atovaquone (0.1 µM) served as a positive control, while 0.1% DMSO was used as a negative control. Liver stage (PbLuc) screening has been previously described^[7]. Human hepatic cells (3 × 10^3; HepG2-A16-CD81-EGFP) suspended in 5 µL of DMEM medium ([…], supplemented with 5% FBS, 5× Pen/Strep/Glu) were seeded in 1536-well plates (Greiner BioOne) using the MultiFlo FX (Agilent) 20 h before infection. PbLuc sporozoites, isolated from the salivary glands of A. stephensi mosquitoes, were filtered twice through a 20 µm nylon pore cell strainer. The sporozoites were resuspended in screening media, counted with a hemocytometer, and diluted to a final concentration of 200 sporozoites per µL. Each well received 1,000 sporozoites in 5 µL, dispensed via the GNF Dispenser II (GNF Systems). […] Luminescence was measured immediately with the Pherastar FSX reader (BMG Labtech). Luminescence values were normalized using the positive and negative controls. EC50 values were calculated with CDD Vault (Burlingame, CA). […]

Structures are written as SMILES. Read-outs that look alike come from different tables or passages of the source.

Experimental findings from paper PMC12707362, “Targeting Aurora Kinases as Essential Cell‐Cycle Regulators to Deliver Multi‐Stage Antimalarials Against Plasmodium Falciparum” (Angewandte Chemie (International Ed. in English), 2025) are described below.

By IC50 is commonly meant the midpoint of a concentration-inhibition curve.

Turning to `COc1cc(N2CCC(N3CCN(C)CC3)CC2)ccc1Nc1ncc(Cl)c(Nc2ccccc2S(=O)(=O)C(C)C)n1` [TAE684, NVP-TAE684], the “number of daughter merozoites per schizont” value in assay [1] is “significant reduction in the number of daughter merozoites”. For the same compound, the IC50 was less than 200 nM in assay [2] (read-out: IC50 P. berghei liver schizonts) and 660 nM in assay [2] (48 h, PbLuc, read-out: Pb liver stage IC50).
